# Patent publication US6066484A, “Purine nucleosidase” (Suntory Limited, priority 1996, dated 2000)
# What was measured:
# [1] = tested on: Aspergillus niger nucleosidase; settings: cited from earlier work
# [2] = tested on: purine nucleosidase; assay: Specific activity, Km and Vmax of purine nucleosidase; format: biochemical, Ochrobactrum anthropi; settings: pH 4.5; for Km / Vmax: 30° C.; for Specific activity: 50° C.
# Description: (§1) The reaction solution (200 μl) contained 0.5 mM of adenosine or inosine or 0.25 mM of guanosine as the substrate, 50 mM of acetate buffer at pH 4.5 and a sufficient amount of enzyme. The reaction was initiated by addition of the enzyme, and the reaction was conducted at 50° C. for 5 minutes. The reaction was terminated by addition of 20 μl of 15% perchloric acid, and after centrifugation (35,000 rpm, 10 min) the supernatant was analyzed qualitatively by thin-layer chromatography (TLC) and quantitatively by high-performance liquid chromatography. The analysis methods were as follows.
# (2) High-performance liquid chromatography
# Eluent: 0.1 M sodium chlorate tetrahydrate, 0.1% (v/v) phosphoric acid
# (§2) The specific activity was measured under conditions of 50° C., pH 4.5. The Km and Vmax were measured under conditions of 30° C., pH 4.5. The relative activity was expressed according to the following measurement method.
# [3] = tested on: purine nucleosidase; assay: Substrate specificity of purine nucleosidase by thin-layer chromatography; format: biochemical, Ochrobactrum anthropi; settings: for decomposition of purine nucleosides (in words): pH 5.5 and 60° C.; for Relative activity: thin-layer chromatography
# Description: as §1
# (1) Thin-layer chromatography
# Plate: Kieselgel 60F254 (Merk)
# Developing solution: n-butanol/isopropanol/H2 O/NH4 OH=1:7:2:0.2 (v/v/v/v) (for adenosine and guanosine substrates), n-butanol/acetic acid/H2 O=5:1:1 (v/v/v) (for inosine substrate)
# The substrate specificity of the purine nucleosidase was determined by thin-layer chromatography (TLC).
# as §2
# [4] = tested on: Active fraction 1 (purine nucleosidase activity); assay: Purine nucleosidase activity of active fraction 1 (1st DEAE-Sephacel); format: biochemical, Ochrobactrum anthropi
# Description: After suspending 20 g of the wet cells in 40 ml of 10 mM Tris-HCl buffer solution (pH 7.4) (hereunder referred to as "buffer"), they were disrupted in a Dynamill at 4° C. for 10 minutes. After filtering the disrupted cell suspension it was centrifuged (10,000 rpm, 60 min) and the supernatant was used as a cell-free extract. The cell-free extract (250 ml) was dialyzed for 12 hours against 5 L of buffer and then applied to a DEAE-Sephacel column (3×30 cm, 200 ml) which had been equilibrized with the buffer. The adsorbed protein was eluted with an NaCl concentration gradient from 0 to 1.0 M and the active fractions were recovered.
# The purine nucleosidase activity at this time was split into two peaks (FIG. 1). Fraction nos. 46 to 69 were collected as the first active fraction and fraction nos. 85 to 101 were collected as the second active fraction.
# as §1
# [5] = tested on: Active fraction 2 (purine nucleosidase activity); assay: Purine nucleosidase activity of active fraction 2 (1st DEAE-Sephacel); format: biochemical, Ochrobactrum anthropi
# [6] = tested on: Bacillus cereus nucleosidase; assay: Bacillus cereus nucleosidase, cell extracts; format: biochemical; settings: studies by the present inventors
# Description: Based on studies by the present inventors using cell extracts, the activity against guanosine is low. Crithidia fasciculata nucleosidase has a high optimum pH of 8.5. Wort also contains various low molecular substances, sugars and proteins, and it has not yet been investigated whether known nucleosidases can actually act on them. Therefore, we screened natural sources for microorganism-derived purine nucleosidases which can utilize adenosine, inosine and guanosine as substrates under conditions of pH 5.0 to 5.5, 50 to 80° C. As a result, high purine nucleosidase activity was found in crushed cell solutions of Ochrobactrum anthropi.
SMILES,decomposition of substrate (in words) [1],Km [2],Vmax [2],decomposition of purine nucleosides (in words) [3],Relative activity [3],"Specific activity, Active fraction 1 ([4]; 30° C.)","Specific activity, Active fraction 1 ([4]; 50° C.)",Specific activity [2],"Specific activity, Active fraction 2 ([5]; 30° C.)","Specific activity, Active fraction 2 ([5]; 50° C.)",activity against substrate (in words) [6]
O=c1[nH]c(=O)c2ncn([C@@H]3O[C@H](CO)[C@@H](O)[C@H]3O)c2[nH]1 [xanthosine],cannot decompose,63.8 µM,68 µmol/min/mg,capable of decomposing,++++ (>50%),–,–,–,–,–,–
OC[C@H]1O[C@@H](n2cnc3c(O)ncnc32)[C@H](O)[C@@H]1O [inosine],–,29.6 µM,18.8 µmol/min/mg,capable of decomposing,++++ (>50%),1.02 µmol/min/mg,4.3 µmol/min/mg,177 µmol/min/mg,0.63 µmol/min/mg,0.44 µmol/min/mg,–
Nc1nc2c(ncn2[C@@H]2O[C@H](CO)[C@@H](O)[C@H]2O)c(=O)[nH]1 [guanosine],–,53.9 µM,11.5 µmol/min/mg,capable of decomposing,++++ (>50%),0.44 µmol/min/mg,1.5 µmol/min/mg,63.3 µmol/min/mg,0.33 µmol/min/mg,0.26 µmol/min/mg,low
